Experimental data published in patent US20250059188A1, “ARYLSULPHONAMIDE COMPOUNDS” (Anaxis Pharma Pty Ltd, priority 2021, published 2025).
pIC50, pKd: −log10 of the molar value.

Experiments:
[1] = test system: U937 cells; experiment: Counter screen: U937 cell viability without TSQ cocktail (off-target effect); parameters: species or system human; conditions: Homo sapiens, U-937, compound without TSQ cocktail, read-out: Off-target effect (IC50 cell-based assay)
Summary of the method: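 U937 cells (20,000/well) exposed to compound (10-point 1:3 titration from 36 μM, 0.3% DMSO) without TSQ cocktail for 48 h at 37 °C/5% CO2. Viability read as ATP by CellTiter-Glo luminescence; IC50 from 4-parameter logistic fit.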

[2] = target: mouse MLKL (full length) (Mus musculus (Mouse), UniProt Q9D2Y4); experiment: KINOMEscan binding assay, mouse MLKL (full length); conditions: equilibrium dissociation constant
Method: Binding affinity of the test compounds for human MLKL (full length), mouse MLKL (full length), human RIPK1 and human RIPK3 was determined using the KINOMEscan™ technology developed by DiscoverX (USA; http://www.discoverx.com). The assay was conducted according to manufacturer instructions.
Kinase assays. For most assays, kinase-tagged T7 phage strains were grown in parallel in 24-well blocks in an E. coli host derived from the BL21 strain. E. coli were grown to log-phase and infected with T7 phage from a frozen stock (multiplicity of infection=0.4) and incubated with shaking at 32° C. until lysis (90-150 minutes). The lysates were centrifuged (6,000×g) and filtered (0.2 μm) to remove cell debris. The remaining kinases were produced in HEK-293 cells and subsequently tagged with DNA for qPCR detection. […] The liganded beads were blocked with excess biotin and washed with blocking buffer (SeaBlock (Pierce), 1% BSA, 0.05% Tween 20, 1 mM DTT) to remove unbound ligand and to reduce non-specific phage binding. […] All reactions were performed in polypropylene 384-well plates in a final volume of 20 μL. […] The kinase concentration in the eluates was measured by qPCR.
An 11-point 3-fold serial dilution of each test compound was prepared in 100% DMSO at 100× final test concentration and subsequently diluted to 1× in the assay (final DMSO concentration=1%). Most Kos were determined using a compound top concentration=30,000 nM.
KD for each test compound was calculated with a standard dose-response curve using the Hill equation (equation (1)): […]
The Hill Slope was set to −1.
Curves were fitted using a non-linear least square fit with the Levenberg-Marquardt algorithm.

[3] = target: human RIPK3 (Homo sapiens (Human), UniProt Q9Y572); experiment: KINOMEscan binding assay, human RIPK3; conditions: equilibrium dissociation constant
Summary of the method: (§1)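 Active-site competition binding: DNA-tagged kinase (T7 phage fusion from BL21-derived E. coli lysate, or HEK-293-expressed) captured on immobilized-ligand beads, with bound kinase in the eluate quantified by qPCR. Compounds ran as 11-point 3-fold dilutions, 1% DMSO, top 30,000 nM for most. Kd came from a Hill fit (slope −1).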

[4] = target: human RIPK1 (Homo sapiens (Human), UniProt Q13546); experiment: KINOMEscan binding assay, human RIPK1; conditions: equilibrium dissociation constant
Summary of the method: as §1

[5] = target: human MLKL (full length) (Homo sapiens (Human), UniProt Q8NB16); experiment: KINOMEscan binding assay, human MLKL (full length); conditions: equilibrium dissociation constant
Summary of the method: as §1

[6] = test system: U937 human histiocytic leukemia cell line; experiment: Inhibition of TSQ induced necroptosis in U937 cells (CellTitre-Glo); conditions: Homo sapiens, U-937, TSQ cocktail (TNF, Smac mimetic, Q-VD-OPh), 48 hours, read-out: Inhibition of TSQ-induced necroptosis (IC50 cell-based assay)
Summary of the method: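 U937 cells (20000/well) treated with compound (10-point, 1:3 from 36 μM, 0.3% DMSO) plus TSQ cocktail (hTNF-Fc 100 ng/ml, Smac mimetic 500 nM, Q-VD-OPh 10 μM), 48 h at 37 °C. Viability by CellTiter-Glo luminescence; IC50 from 4-parameter logistic fit. Counter screen: same cells without TSQ.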

[7] = test system: Immortalised Mouse Dermal Fibroblasts (MDFs); experiment: Inhibition of TSI induced necroptosis in mouse dermal fibroblasts (CellTitre-Glo); conditions: Mus musculus, Fibroblast, 3 h, MDF cells, TSI cocktail (TNF, Smac mimetic, IDN-6556), read-out: Inhibition of TSI-induced necroptosis (IC50 cell-based assay) in MDF
Method: Cellular Assay: Screening Compounds for Inhibition of TSI Induced Necroptosis in, 384 well plate format. • Cell Line ID: Immortalised Mouse Dermal Fibroblasts (MDFs). • Cell Concentration (cells/well): Final cell density is 2200 cells per well. • Cell growth medium: DMEM medium+7.4% Fetal Bovine Serum (FBS). Cells are cultured in Corning 150 cm^2 tissue culture flasks with vented caps at 37° C./10% CO2. • Incubation: Plates were incubated for 30 minutes following addition of compounds and then 3 hours incubation with death stimuli (TSI cocktail) at 37° C./10% CO2 in a humidified incubator. • Compound concentration: 36 μM starting concentration, 1:3 dilution, 10 point • DMSO final concentration (% v/v): 0.3%. Compounds in TSI Cocktail (T: TNF; S: Smac Mimetic; I: IDN-6556) and their Final Concentrations: • rhTNF (100 ng/ml) • Compound A (500 nM)—Smac mimetic, Tetralogic and SYNthesis med chem • IDN-6556 (10 μM)—Selleckchem (S7775)
The cellular assay was carried out according to the following steps: • 1. Each well was prepared by sequential addition of: • a. 40 μL of cell suspension (5.5×10^4 cells/mL) was added to each well to provide a final cell concentration of 2,200 cells per well. • b. After 24 hours, DMSO (control; columns 1-2 and 23-24) or compound in DMSO—addition was performed using acoustic transfer of nL volumes of stock compound to give final test concentrations of 36, 12, 4, 1.3, 0.44, 0.148, 0.049, 0.016, 0.005 and 0.002 μM. All wells were backfilled with DMSO to a final total volume in the well of 100 nL. • c. Following compound/DMSO addition in step (b), Plates were incubated for 30 minutes at 37° C./10% CO2 in a humidified incubator and then 10 μL of 5×TSI cocktail (except to positive controls; columns 2 and 24) was added to each well. • 2. After 3 hours, plate was removed from the 37° C. incubator and equilibrated to room temperature for 15 minutes. • 3. 15 μL of room temperature CellTitre-Glo2™ (Promega™) was added to each well. • 4. Shook plates for 2 minutes (˜600 rpm) and incubated at room temperature for 15 minutes to allow signal to stabilise. • 5. Read luminescence readout on a plate reader.
Percent viability was calculated for each compound according to equation (2): […]
10 point titration curves were fitted with the 4 parameter logistic nonlinear regression model and the IC50 reported reflect the inflection point of the curve for curve fitting.
• Assay involving the TSI cocktail (T: TNF; S: Smac mimetic; I: IDN-6556): TSI treatment ensures that cells specifically undergo necroptotic cell death. TNF activates the TNF receptor, Smac mimetic directs the signal away from proinflammatory signaling and toward the RIPK1/RIPK3-mediated cell death pathways, and IDN-6556 (Caspase inhibitor) ensures that the apoptotic response is blocked leaving only the programmed necrosis response. The compounds' activity (solution in DMSO) tested in this TSI-induced assay was evaluated by determining the number of viable cells in culture by measuring the amount of ATP present as measured by CelltiterGlo.

Chain of mouse MLKL (full length) (Q9D2Y4 whole entry): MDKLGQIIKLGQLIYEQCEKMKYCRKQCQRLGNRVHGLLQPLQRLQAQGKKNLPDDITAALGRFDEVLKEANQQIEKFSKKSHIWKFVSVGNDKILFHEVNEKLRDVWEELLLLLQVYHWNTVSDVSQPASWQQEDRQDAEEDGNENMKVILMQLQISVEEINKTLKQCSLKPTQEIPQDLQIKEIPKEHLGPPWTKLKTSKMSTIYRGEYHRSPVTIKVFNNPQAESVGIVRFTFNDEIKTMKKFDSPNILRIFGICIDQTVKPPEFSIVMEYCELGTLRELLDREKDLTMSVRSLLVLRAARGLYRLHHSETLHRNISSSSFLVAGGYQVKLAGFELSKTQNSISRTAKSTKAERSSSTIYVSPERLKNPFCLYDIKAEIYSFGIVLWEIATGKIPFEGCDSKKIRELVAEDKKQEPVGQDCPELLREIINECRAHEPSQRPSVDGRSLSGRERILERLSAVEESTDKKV
Chain of human RIPK1 (Q13546 whole entry): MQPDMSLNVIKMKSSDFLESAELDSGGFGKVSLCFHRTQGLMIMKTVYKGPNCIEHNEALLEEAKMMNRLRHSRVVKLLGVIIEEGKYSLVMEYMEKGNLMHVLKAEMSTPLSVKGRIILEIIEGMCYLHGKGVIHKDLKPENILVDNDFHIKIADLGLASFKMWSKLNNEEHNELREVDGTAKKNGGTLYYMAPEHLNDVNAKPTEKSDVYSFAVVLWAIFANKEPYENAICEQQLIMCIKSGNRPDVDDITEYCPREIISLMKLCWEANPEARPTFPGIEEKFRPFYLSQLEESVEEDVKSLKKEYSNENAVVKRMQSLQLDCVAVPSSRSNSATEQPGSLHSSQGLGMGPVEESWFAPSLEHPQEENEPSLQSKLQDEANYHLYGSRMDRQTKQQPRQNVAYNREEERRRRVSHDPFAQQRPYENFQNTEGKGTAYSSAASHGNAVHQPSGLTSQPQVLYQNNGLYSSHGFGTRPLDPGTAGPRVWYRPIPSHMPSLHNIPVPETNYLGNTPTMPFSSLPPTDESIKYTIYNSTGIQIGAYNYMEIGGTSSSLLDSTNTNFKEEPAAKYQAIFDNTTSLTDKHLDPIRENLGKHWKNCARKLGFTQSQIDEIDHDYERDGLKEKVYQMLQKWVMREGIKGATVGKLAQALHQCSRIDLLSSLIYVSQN
Chain of human MLKL (full length) (Q8NB16 whole entry): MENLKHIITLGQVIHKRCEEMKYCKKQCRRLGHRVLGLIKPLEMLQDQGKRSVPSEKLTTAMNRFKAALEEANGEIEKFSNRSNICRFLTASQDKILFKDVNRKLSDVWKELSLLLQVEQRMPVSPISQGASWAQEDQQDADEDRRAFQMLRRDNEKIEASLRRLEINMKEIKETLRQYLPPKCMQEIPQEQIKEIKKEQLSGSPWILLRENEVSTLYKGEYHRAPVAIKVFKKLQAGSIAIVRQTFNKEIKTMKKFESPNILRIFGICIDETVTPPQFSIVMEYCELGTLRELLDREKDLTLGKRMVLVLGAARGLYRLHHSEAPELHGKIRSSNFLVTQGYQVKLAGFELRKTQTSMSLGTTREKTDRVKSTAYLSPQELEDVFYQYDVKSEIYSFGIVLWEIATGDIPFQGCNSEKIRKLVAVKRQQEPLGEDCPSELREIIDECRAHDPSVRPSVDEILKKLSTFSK
Chain of human RIPK3 (Q9Y572 whole entry, the tested form may be a part): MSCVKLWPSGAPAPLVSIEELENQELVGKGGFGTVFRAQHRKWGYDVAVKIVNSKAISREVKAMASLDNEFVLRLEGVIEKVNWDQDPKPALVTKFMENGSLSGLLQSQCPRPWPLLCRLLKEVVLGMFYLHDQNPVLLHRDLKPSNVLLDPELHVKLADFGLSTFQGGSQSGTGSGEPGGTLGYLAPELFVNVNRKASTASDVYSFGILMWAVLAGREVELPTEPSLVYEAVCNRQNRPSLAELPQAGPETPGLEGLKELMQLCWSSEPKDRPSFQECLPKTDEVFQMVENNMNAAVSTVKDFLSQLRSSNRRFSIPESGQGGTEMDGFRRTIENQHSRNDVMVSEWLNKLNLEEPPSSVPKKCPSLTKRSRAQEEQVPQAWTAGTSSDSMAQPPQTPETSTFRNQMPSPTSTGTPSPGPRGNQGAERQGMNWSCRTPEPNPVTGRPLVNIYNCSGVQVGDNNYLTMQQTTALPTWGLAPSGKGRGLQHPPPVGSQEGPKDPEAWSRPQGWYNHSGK

| Compound | pIC50 [1] | pKd [2] | pKd [3] | pKd [4] | pKd [5] | pIC50 [6] | pIC50 [7] |
| --- | --- | --- | --- | --- | --- | --- | --- |
| C[C@H](Oc1cc(-c2ccnc3[nH]nc(N)c23)ccc1NS(=O)(=O)C(F)F)c1ccc(F)cc1 [Compound 72, N-(4-(3-Amino-1H-pyrazolo[3,4-b]pyridin-4-yl)-2-((1S)-1-(4-fluorophenyl)ethoxy)phenyl)-1,1-difluoromethanesulfonamide] | < 5.00 | 7.00 to 9.00 | < 5.00 | < 5.00 | > 9.00 | 6.00 to 8.00 |  |
| C[C@H](Oc1cc(-c2nn(C)c3c(-c4cnn(C)c4)cnc(N)c23)ccc1NS(=O)(=O)C(F)F)c1ccc(F)cc1 [Compound 20, (S)-N-(4-(4-amino-1-methyl-7-(1-methyl-1H-pyrazol-4-yl)-1H-pyrazolo[4,3-c]pyridin-3-yl)-2-(1-(4-fluorophenyl)ethoxy)phenyl)-1,1-difluoromethanesulfonamide] | < 5.00 | > 9.00 | < 5.00 | < 5.00 | > 9.00 | 6.00 to 8.00 |  |
| C[C@H](Oc1cc(-c2nn(C)c3c(-c4cnn(CCN5CCN(C)CC5)c4)cnc(N)c23)ccc1NS(=O)(=O)C(F)F)c1ccc(F)cc1 [Compound 60, (S)-N-(4-(4-amino-1-methyl-7-(1-(2-(4-methylpiperazin-1-yl)ethyl)-1H-pyrazol-4-yl)-1H-pyrazolo[4,3-c]pyridin-3-yl)-2-(1-(4-fluorophenyl)ethoxy)phenyl)-1,1-difluoromethanesulfonamide] | < 5.00 | > 9.00 | < 5.00 | < 5.00 | 7.00 to 9.00 | 6.00 to 8.00 |  |
| C[C@H](Oc1cc(-c2nn(C)c3c(-c4ccncc4)cnc(N)c23)ccc1NS(=O)(=O)C(F)F)c1ccc(F)cc1 [Compound 18, (S)-N-(4-(4-amino-1-methyl-7-(pyridin-4-yl)-1H-pyrazolo[4,3-c]pyridin-3-yl)-2-(1-(4-fluorophenyl)ethoxy)phenyl)-1,1-difluoromethanesulfonamide] | < 5.00 | 7.00 to 9.00 | < 5.00 | < 5.00 | > 9.00 | 6.00 to 8.00 |  |
| Nc1ncc(-c2cnn(C3CCOCC3)c2)c2occ(-c3ccc(NS(=O)(=O)CC(F)(F)F)c(OCc4ccc(F)cc4)c3)c12 [Compound 11, N-(4-(4-amino-7-(1-(tetrahydro-2H-pyran-4-yl)-1H-pyrazol-4-yl)furo[3,2-c]pyridin-3-yl)-2-((4-fluorobenzyl)oxy)phenyl)-2,2,2-trifluoroethane-1-sulfonamide] |  | 7.00 to 9.00 | < 5.00 | < 5.00 | 7.00 to 9.00 |  | 5.00 to 6.00 |
| C[C@H](Oc1cc(-c2coc3c(-c4cnn(C5CCOCC5)c4)cnc(N)c23)ccc1NS(=O)(=O)C(F)F)c1ccc(F)cc1 [Compound 7, (S)-N-(4-(4-amino-7-(1-(tetrahydro-2H-pyran-4-yl)-1H-pyrazol-4-yl)furo[3,2-c]pyridin-3-yl)-2-(1-(4-fluorophenyl)ethoxy)phenyl)-1,1-difluoromethanesulfonamide] | 5.00 to 6.00 | > 9.00 | < 5.00 | < 5.00 | 7.00 to 9.00 | 6.00 to 8.00 |  |
| C[C@H](Oc1cc(-c2nn(C)c3c(-c4cnn(C5CCN(CC(F)(F)F)CC5)c4)cnc(N)c23)ccc1NS(=O)(=O)C(F)F)c1ccc(F)cc1 [Compound 61, (S)-N-(4-(4-amino-1-methyl-7-(1-(1-(2,2,2-trifluoroethyl)piperidin-4-yl)-1H-pyrazol-4-yl)-1H-pyrazolo[4,3-c]pyridin-3-yl)-2-(1-(4-fluorophenyl)ethoxy)phenyl)-1,1-difluoromethanesulfonamide] | < 5.00 | 7.00 to 9.00 | < 5.00 | < 5.00 | 7.00 to 9.00 | 6.00 to 8.00 |  |
| C[C@H](Oc1cc(-c2nn(C)c3c(-c4cnn(CCO)c4)cnc(N)c23)ccc1NS(=O)(=O)C(F)F)c1ccc(F)cc1 [Compound 15, (S)-N-(4-(4-amino-7-(1-(2-hydroxyethyl)-1H-pyrazol-4-yl)-1-methyl-1H-pyrazolo[4,3-c]pyridin-3-yl)-2-(1-(4-fluorophenyl)ethoxy)phenyl)-1,1-difluoromethanesulfonamide] | < 5.00 | > 9.00 | < 5.00 | < 5.00 | > 9.00 | 6.00 to 8.00 |  |
| C[C@H](Oc1cc(-c2coc3c(-c4cnn(CCO)c4)cnc(N)c23)ccc1NS(=O)(=O)C(F)F)c1ccc(F)cc1 [Compound 9, (S)-N-(4-(4-amino-7-(1-(2-hydroxyethyl)-1H-pyrazol-4-yl)furo[3,2-c]pyridin-3-yl)-2-(1-(4-fluorophenyl)ethoxy)phenyl)-1,1-difluoromethanesulfonamide] | 5.00 to 6.00 | 7.00 to 9.00 | < 5.00 | < 5.00 | > 9.00 | 6.00 to 8.00 |  |
